In ChEMBL document CHEMBL1201861, “Genomics of Drug Sensitity in Cancer screening data, Wellcome Trust Sanger Institute”:
pIC50: −log10 of the molar value.

Tests used:
DMS-153 = test: cells; type: functional, cell-based; settings: Homo sapiens
Description: SANGER: Inhibition of human DMS-153 cell growth in a cell viability assay.

EB2 = test: cells; type: functional, cell-based; settings: Homo sapiens;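 also: growth inhibition of EB2 cells, read out with a cell viability assay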
Description: SANGER: Inhibition of human EB2 cell growth in a cell viability assay.

EVSA-T = test: cells; type: functional, cell-based, Homo sapiens; settings: Homo sapiens, EVSA-T;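 also: growth inhibition of EVSA-T cells, read out with a cell viability assay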
Description: SANGER: Inhibition of human EVSA-T cell growth in a cell viability assay.

EW-22 = test: cells; type: functional, cell-based; settings: Homo sapiens;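 also: growth inhibition of the EW-22 cell line, measured with a cell viability readout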
Description: SANGER: Inhibition of human EW-22 cell growth in a cell viability assay.

IST-SL2 = test: cells; type: functional, cell-based; settings: Homo sapiens;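 also: growth inhibition of human IST-SL2 cells, read out by a cell viability assay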
Description: SANGER: Inhibition of human IST-SL2 cell growth in a cell viability assay.

LC-1F = test: cells; type: functional, cell-based; settings: Homo sapiens;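 also: growth inhibition of human LC-1F cells, read out with a cell viability assay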
Description: SANGER: Inhibition of human LC-1F cell growth in a cell viability assay.

LC4-1 = test: cells; type: functional, cell-based; settings: Homo sapiens;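 also: growth inhibition of LC4-1 cells, read out with a cell viability assay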
Description: SANGER: Inhibition of human LC4-1 cell growth in a cell viability assay.

LP-1 = test: cells; type: functional, cell-based; settings: Homo sapiens;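 also: growth inhibition of human LP-1 cells, with the read-out taken from a cell viability assay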
Description: SANGER: Inhibition of human LP-1 cell growth in a cell viability assay.

MC-CAR = test: cells; type: functional, cell-based; settings: Homo sapiens;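 also: growth inhibition of the human MC-CAR cell line, read out by a cell viability assay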
Description: SANGER: Inhibition of human MC-CAR cell growth in a cell viability assay.

MHH-CALL-2 = test: cells; type: functional, cell-based; settings: Homo sapiens;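 also: growth inhibition of the cell line, read out in a cell viability assay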
Description: SANGER: Inhibition of human MHH-CALL-2 cell growth in a cell viability assay.

MONO-MAC-6 = test: cells; type: functional, cell-based; settings: Homo sapiens;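 also: cell viability assay measuring growth inhibition of human MONO-MAC-6 cells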
Description: SANGER: Inhibition of human MONO-MAC-6 cell growth in a cell viability assay.

NALM-6 = test: cells; type: functional, cell-based; settings: Homo sapiens;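 also: growth inhibition of NALM-6 cells, read out with a cell viability assay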
Description: SANGER: Inhibition of human NALM-6 cell growth in a cell viability assay.

NB1 = test: cells; type: functional, cell-based; settings: Homo sapiens;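 also: reduction of NB1 cell proliferation, read out with a viability assay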
Description: SANGER: Inhibition of human NB1 cell growth in a cell viability assay.

NCCIT = test: SANGER: Inhibition of human NCCIT cell growth in a cell viability assay.; type: functional, cell-based
NCI-H1417 = test: cells; type: functional, cell-based; settings: Homo sapiens;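 also: human NCI-H1417 cells, growth inhibition determined with a cell viability readout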
Description: SANGER: Inhibition of human NCI-H1417 cell growth in a cell viability assay.

NCI-H1522 = test: cells; type: functional, cell-based; settings: Homo sapiens;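 also: growth inhibition of NCI-H1522 cells, read out with a cell viability assay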
Description: SANGER: Inhibition of human NCI-H1522 cell growth in a cell viability assay.

NCI-H1882 = test: cells; type: functional, cell-based; settings: Homo sapiens;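 also: growth inhibition of the cell line, determined with a viability assay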
Description: SANGER: Inhibition of human NCI-H1882 cell growth in a cell viability assay.

NCI-H2171 = test: cells; type: functional, cell-based; settings: Homo sapiens;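 also: growth inhibition of human NCI-H2171 cells, read out by a cell viability assay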
Description: SANGER: Inhibition of human NCI-H2171 cell growth in a cell viability assay.

NCI-H2196 = test: cells; type: functional, cell-based; settings: Homo sapiens;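 also: cell viability assay used as the readout of growth inhibition in NCI-H2196 cells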
Description: SANGER: Inhibition of human NCI-H2196 cell growth in a cell viability assay.

NCI-H64 = test: cells; type: functional, cell-based; settings: Homo sapiens;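 also: growth inhibition of NCI-H64 cells, read out with a cell viability assay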
Description: SANGER: Inhibition of human NCI-H64 cell growth in a cell viability assay.

NCI-H719 = test: cells; type: functional, cell-based; settings: Homo sapiens;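 also: growth inhibition of the cultured cell line, read out with a viability assay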
Description: SANGER: Inhibition of human NCI-H719 cell growth in a cell viability assay.

NCI-H748 = test: cells; type: functional, cell-based; settings: Homo sapiens;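 also: growth inhibition of NCI-H748 cells, measured by a cell viability assay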
Description: SANGER: Inhibition of human NCI-H748 cell growth in a cell viability assay.

SNU-16 = test: cells; type: functional, cell-based; settings: Homo sapiens;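 also: growth inhibition of human SNU-16 cells, determined with a cell viability readout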
Description: SANGER: Inhibition of human NCI-SNU-16 cell growth in a cell viability assay.

P31-FUJ = test: cells; type: functional, cell-based; settings: Homo sapiens;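 also: growth inhibition of P31-FUJ cells, read out with a viability assay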
Description: SANGER: Inhibition of human P31-FUJ cell growth in a cell viability assay.

PF-382 = test: cells; type: functional, cell-based; settings: Homo sapiens
Description: SANGER: Inhibition of human PF-382 cell growth in a cell viability assay.

RL = test: cells; type: functional, cell-based; settings: Homo sapiens
Description: SANGER: Inhibition of human RL cell growth in a cell viability assay.

RL95-2 = test: cells; type: functional, cell-based; settings: Homo sapiens;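 also: RL95-2 growth inhibition determined through a cell viability readout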
Description: SANGER: Inhibition of human RL95-2 cell growth in a cell viability assay.

RPMI-6666 = test: cells; type: functional, cell-based; settings: Homo sapiens
Description: SANGER: Inhibition of human RPMI-6666 cell growth in a cell viability assay.

RPMI 8402 = test: SANGER: Inhibition of human RPMI-8402 cell growth in a cell viability assay.; type: functional, cell-based
SCLC-21H = test: cells; type: functional, cell-based; settings: Homo sapiens;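 also: growth inhibition of cultured human SCLC-21H cells, read out with a cell viability assay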
Description: SANGER: Inhibition of human SCLC-21H cell growth in a cell viability assay.

SIG-M5 = test: cells; type: functional, cell-based; settings: Homo sapiens;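 also: cell viability assay read-out, measuring how strongly growth of cultured human SIG-M5 cells is inhibited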
Description: SANGER: Inhibition of human SIG-M5 cell growth in a cell viability assay.

SIMA = test: cells; type: functional, cell-based, Homo sapiens; settings: Homo sapiens, SIMA;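 also: growth inhibition of SIMA cells, measured with a cell viability readout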
Description: SANGER: Inhibition of human SIMA cell growth in a cell viability assay.

SK-MM-2 = test: cells; type: functional, cell-based; settings: Homo sapiens;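 also: growth inhibition of human SK-MM-2 cells, read out with a cell viability assay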
Description: SANGER: Inhibition of human SK-MM-2 cell growth in a cell viability assay.

TALL-1 = test: cells; type: functional, cell-based; settings: Homo sapiens;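 also: growth inhibition of cultured human TALL-1 cells, read out by a cell viability assay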
Description: SANGER: Inhibition of human TALL-1 cell growth in a cell viability assay.

BC-3 = test: cells; type: functional, cell-based; settings: Homo sapiens;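 also: cell viability assay measuring growth inhibition of human BC-3 cells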
Description: SANGER: Inhibition of human BC-3 cell growth in a cell viability assay.

BL-41 = test: cells; type: functional, cell-based; settings: Homo sapiens;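 also: growth inhibition of human BL-41 cells, read out with a cell viability assay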
Description: SANGER: Inhibition of human BL-41 cell growth in a cell viability assay.

BL-70 = test: SANGER: Inhibition of human BL-70 cell growth in a cell viability assay.; type: functional, cell-based
CAL-148 = test: cells; type: functional, cell-based; settings: Homo sapiens
Description: SANGER: Inhibition of human CAL-148 cell growth in a cell viability assay.

TE-441-T = test: cells; type: functional, cell-based; settings: Homo sapiens
Description: SANGER: Inhibition of human TE-441-T cell growth in a cell viability assay.

U-698-M = test: cells; type: functional, cell-based; settings: Homo sapiens
Description: SANGER: Inhibition of human U-698-M cell growth in a cell viability assay.

UACC-812 = test: cells; type: functional, cell-based; settings: Homo sapiens
Description: SANGER: Inhibition of human UACC-812 cell growth in a cell viability assay.

WSU-NHL = test: cells; type: functional, cell-based; settings: Homo sapiens;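 also: growth inhibition of human WSU-NHL cells, read out with a cell viability assay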
Description: SANGER: Inhibition of human WSU-NHL cell growth in a cell viability assay.

CESS = test: SANGER: Inhibition of human CESS cell growth in a cell viability assay.; type: functional, cell-based
CHP-126 = test: cells; type: functional, cell-based; settings: Homo sapiens
Description: SANGER: Inhibition of human CHP-126 cell growth in a cell viability assay.

CMK = test: cells; type: functional, cell-based; settings: Homo sapiens;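 also: growth inhibition of CMK cells, read out as cell viability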
Description: SANGER: Inhibition of human CMK cell growth in a cell viability assay.

`CN1CCN(CCOc2cc(OC3CCOCC3)c3c(Nc4c(Cl)ccc5c4OCO5)ncnc3c2)CC1` [SARACATINIB] was tested, and the pIC50 (DMS-153) was under 5.70, the pIC50 (EB2) was under 5.70 and the pIC50 (EVSA-T) was under 5.70. The pIC50 (EW-22) was under 5.70, the pIC50 (IST-SL2) was under 5.70 and the pIC50 (LC-1F) was under 5.70. It also gave a pIC50 (LC4-1) of under 5.70, a pIC50 (LP-1) of under 5.70 and a pIC50 (MC-CAR) of under 5.70. The pIC50 (MHH-CALL-2) was under 5.70, the pIC50 (MONO-MAC-6) was under 5.70 and the pIC50 (NALM-6) was under 5.70. The pIC50 (NB1) was under 5.70, the pIC50 (NCCIT) was 6.14 and the pIC50 (NCI-H1417) was under 5.70. The pIC50 (NCI-H1522) was under 5.70, the pIC50 (NCI-H1882) was under 5.70 and the pIC50 (NCI-H2171) was under 5.70. The pIC50 (NCI-H2196) was under 5.70, the pIC50 (NCI-H64) was under 5.70 and the pIC50 (NCI-H719) was under 5.70. For the same compound, the pIC50 (NCI-H748) was under 5.70, the pIC50 (SNU-16) was under 5.70 and the pIC50 (P31-FUJ) was under 5.70. The pIC50 (PF-382) was under 5.70, the pIC50 (RL) was under 5.70 and the pIC50 (RL95-2) was 5.78. For the same compound, the pIC50 (RPMI-6666) was under 5.70, the pIC50 (RPMI 8402) was under 5.70 and the pIC50 (SCLC-21H) was under 5.70. It also gave a pIC50 (SIG-M5) of under 5.70, a pIC50 (SIMA) of under 5.70 and a pIC50 (SK-MM-2) of under 5.70. It also gave a pIC50 (TALL-1) of under 5.70, a pIC50 (BC-3) of under 5.70 and a pIC50 (BL-41) of under 5.70. For the same compound, the pIC50 (BL-70) was under 5.70, the pIC50 (CAL-148) was under 5.70 and the pIC50 (TE-441-T) was under 5.70. The pIC50 (U-698-M) was under 5.70, the pIC50 (UACC-812) was under 5.70 and the pIC50 (WSU-NHL) was under 5.70. It also gave a pIC50 (CESS) of under 5.70, a pIC50 (CHP-126) of under 5.70 and a pIC50 (CMK) of under 5.70.
Compound `CO[C@H]1C[C@@H]2CC[C@@H](C)[C@@](O)(O2)C(=O)C(=O)N2CCCC[C@H]2C(=O)O[C@H]([C@H](C)C[C@@H]2CC[C@@H](O)[C@H](OC)C2)CC(=O)[C@H](C)/C=C(\C)[C@@H](O)[C@@H](OC)C(=O)[C@H](C)C[C@H](C)/C=C/C=C/C=C/1C` [SIROLIMUS] has a pIC50 (DMS-153) of under 7.00, a pIC50 (EB2) of under 7.00 and a pIC50 (EVSA-T) of under 7.00. It also gave a pIC50 (EW-22) of under 7.00, a pIC50 (IST-SL2) of under 7.00 and a pIC50 (LC-1F) of under 7.00. The pIC50 (LC4-1) was 7.06, the pIC50 (LP-1) was under 7.00 and the pIC50 (MC-CAR) was under 7.00. For the same compound, the pIC50 (MHH-CALL-2) was under 7.00, the pIC50 (MONO-MAC-6) was under 7.00 and the pIC50 (NALM-6) was under 7.00. It also gave a pIC50 (NB1) of under 7.00, a pIC50 (NCCIT) of under 7.00 and a pIC50 (NCI-H1417) of under 7.00. For the same compound, the pIC50 (NCI-H1522) was under 7.00, the pIC50 (NCI-H1882) was under 7.00 and the pIC50 (NCI-H2171) was under 7.00. It also gave a pIC50 (NCI-H2196) of under 7.00, a pIC50 (NCI-H64) of under 7.00 and a pIC50 (NCI-H719) of under 7.00. It also gave a pIC50 (NCI-H748) of under 7.00, a pIC50 (SNU-16) of under 7.00 and a pIC50 (P31-FUJ) of under 7.00. For the same compound, the pIC50 (PF-382) was 7.01, the pIC50 (RL) was under 7.00 and the pIC50 (RL95-2) was 9.97. It also gave a pIC50 (RPMI-6666) of 7.61, a pIC50 (RPMI 8402) of 7.66 and a pIC50 (SCLC-21H) of under 7.00. It also gave a pIC50 (SIG-M5) of 7.76, a pIC50 (SIMA) of under 7.00 and a pIC50 (SK-MM-2) of under 7.00. For the same compound, the pIC50 (TALL-1) was under 7.00, the pIC50 (BC-3) was 7.00 and the pIC50 (BL-41) was 7.36. It also gave a pIC50 (BL-70) of 7.55, a pIC50 (CAL-148) of under 7.00 and a pIC50 (TE-441-T) of under 7.00. It also gave a pIC50 (U-698-M) of under 7.00, a pIC50 (UACC-812) of under 7.00 and a pIC50 (WSU-NHL) of under 7.00. It also gave a pIC50 (CESS) of 7.88, a pIC50 (CHP-126) of under 7.00 and a pIC50 (CMK) of 7.07.
With `CNC(=O)c1cc(Oc2ccc(NC(=O)Nc3ccc(Cl)c(C(F)(F)F)c3)cc2)ccn1` [SORAFENIB] the pIC50 (DMS-153) was under 5.40, the pIC50 (EB2) was under 5.40 and the pIC50 (EVSA-T) was under 5.40. It also gave a pIC50 (EW-22) of under 5.40, a pIC50 (IST-SL2) of under 5.40 and a pIC50 (LC-1F) of under 5.40. It also gave a pIC50 (LC4-1) of under 5.40, a pIC50 (LP-1) of under 5.40 and a pIC50 (MC-CAR) of under 5.40. It also gave a pIC50 (MHH-CALL-2) of under 5.40, a pIC50 (MONO-MAC-6) of 8.38 and a pIC50 (NALM-6) of under 5.40. For the same compound, the pIC50 (NB1) was under 5.40, the pIC50 (NCCIT) was under 5.40 and the pIC50 (NCI-H1417) was under 5.40. For the same compound, the pIC50 (NCI-H1522) was under 5.40, the pIC50 (NCI-H1882) was under 5.40 and the pIC50 (NCI-H2171) was 5.62. For the same compound, the pIC50 (NCI-H2196) was under 5.40, the pIC50 (NCI-H64) was under 5.40 and the pIC50 (NCI-H719) was under 5.40. For the same compound, the pIC50 (NCI-H748) was under 5.40, the pIC50 (SNU-16) was under 5.40 and the pIC50 (P31-FUJ) was under 5.40. It also gave a pIC50 (PF-382) of under 5.40, a pIC50 (RL) of under 5.40 and a pIC50 (RL95-2) of under 5.40. It also gave a pIC50 (RPMI-6666) of under 5.40, a pIC50 (RPMI 8402) of under 5.40 and a pIC50 (SCLC-21H) of under 5.40. For the same compound, the pIC50 (SIG-M5) was 5.62, the pIC50 (SIMA) was under 5.40 and the pIC50 (SK-MM-2) was under 5.40. It also gave a pIC50 (TALL-1) of under 5.40, a pIC50 (BC-3) of under 5.40 and a pIC50 (BL-41) of under 5.40. It also gave a pIC50 (BL-70) of under 5.40, a pIC50 (CAL-148) of under 5.40 and a pIC50 (TE-441-T) of under 5.40. The pIC50 (U-698-M) was under 5.40, the pIC50 (UACC-812) was under 5.40 and the pIC50 (WSU-NHL) was under 5.40. For the same compound, the pIC50 (CESS) was under 5.40, the pIC50 (CHP-126) was under 5.40 and the pIC50 (CMK) was under 5.40.
